According to paper PMC12000251, “Evaluation of the Anti-Inflammatory Effects of Novel Fatty Acid-Binding Protein 4 Inhibitors in Microglia” (Journal of Neuroimmune Pharmacology, 2025):
Read-outs that look alike come from different tables or passages of the source.

Key:
[1] = target: T1, Recombinantly-expressed human FABP4 (Homo sapiens, UniProt P15090); assay: Isothermal titration calorimetry (ITC) binding affinity to FABP4; settings: one-site binding model
T1 construct: made in house
Procedure: A prior fragment screen identified a series of bi-aryl sulfonamides that bound to FABP4. Analogues of this chemical sulfonamide scaffold were then purchased, which led to the identification of the compounds used in this study (MFP-0011462, MFP-0012314, MFP-0012318, and MFP-0012328). Their predicted LogP and tPSA values were calculated in Vortex v2020.1.117658-s (Dotmatics, Boston, MA). The binding affinity of these four compounds was characterised by isothermal titration calorimetry (ITC). ITC was carried out using an iTC200 microcalorimeter (MicroCal, United Kingdom) with a coin shaped sample cell (201.4 μL) with stirring at 1000 rpm at 25°C. Titrations were performed in an ITC buffer (50 mM sodium phosphate, 50 mM NaCl, pH 7.4 with 2% DMSO). Compounds were diluted from concentrated stocks in ITC buffer and loaded into the titration syringe at a concentration of 1 mM, with a final DMSO concentration of 2% (v/v). Recombinantly-expressed human FABP4 was prepared as described previously (Lee et al. [2015a]) in an identical buffer at a protein concentration of 80 μM and placed in the sample cell. A thermal equilibration step at 25°C was followed by an initial 180 s delay step and subsequently an initial 0.2 μL injection. 16 serial injections of the 1 mM compound solution (2 μL each) were made at intervals of 220 s with continuous stirring of the solution in the sample cell. The iTC200 control software was used to operate and acquire raw data as power (microcalories/sec) vs time (min). The data were processed using the Origin 7.0 software (MicroCal) and the binding affinity (KD) was calculated by fitting the data to a one-site binding model.

[2] = tested on: BV-2 cells; assay: MTT assay of BV-2 cell viability; assay type: cell-based, mouse; settings: 24 h; for fold reduction in cell viability: 75 µM and 100 µM of MFP-0012328, 100 µM of the other MFP compounds, range over the compounds; for BV-2 cell viability relative to vehicle control: 2–50 µM, MTT
Procedure: (§1) BV-2 cells were cultured in DMEM/F-12 media supplemented with 10% (v/v) FBS and 1% (v/v) penicillin/streptomycin, and kept at 37 °C in a humidified incubator ([…], 5% CO2) for all studies. Cells with 80% confluency were used for experiments. At 24 h post-seeding, BV-2 cells were treated with either of the MFP compounds (at concentrations detailed below) or vehicle (0.1% (v/v) DMSO) and 1 µg/mL LPS for a period of 24 h. In some experiments (detailed in Results), BV-2 cells were exposed to MFP compounds for 2 h before a 24 h exposure to LPS and MFP compounds, and in some studies, in the presence of FABP4 siRNA using a 24 h treatment that we have previously employed (Low et al. [2021]). In brief, BV-2 cells were washed once 4 h post-seeding with blank DMEM/F-12 media. siRNA complexes (containing FABP4 siRNA, target sequence 5’-[…]-3’ or AllStar Negative Control siRNA, target sequence proprietary) were added dropwise onto the cells. siRNA complexes were prepared by mixing siRNA and HiPerfect transfection reagent together in FBS-free DMEM/F12 media and incubating for 15 min to allow the siRNA complexes to form. The cells were incubated with the siRNA complex for 5 min, after which, DMEM/F12 media containing FBS was added into each well to dilute the siRNA complexes to 5 nM.
To determine the most appropriate and tolerable concentration of MFP compounds in BV-2 cells, an MTT assay was performed. Following treatment with increasing concentrations of MFP compounds for 24 h, BV-2 cells were rinsed once with PBS prior to being incubated with 0.45 mg/mL MTT reagent for 4 h in a 37 °C, 5% CO2 incubator. After that, the MTT reagent was removed and 150 µL of DMSO was added into all wells for 30 min. The plate was then immediately read on a Perkin-Elmer Enspire fluorescence plate reader (Boston, MA) at 540 nm. Background subtraction was performed before the percentage cell viability was calculated and expressed as a ratio of mean absorbance of MFP-treated cells over mean absorbance of vehicle-treated cells.

[3] = tested on: LPS-activated BV-2 cells; assay: Intracellular ROS (DCF-DA) in LPS-activated BV-2 cells; assay type: cell-based, mouse; settings: 2 h pre-treatment then co-treatment with 1 µg/mL LPS 24 h, vs LPS-only
Procedure: as §1, with “At 24 h post-seeding, BV-2 cells were treated with either of the MFP compounds (at concentrations detailed below) or vehicle (0.1% (v/v) DMSO) and 1 µg/mL LPS for a period of 24 h.” left out
Intracellular ROS in BV-2 cells, following treatment with MFP compounds and LPS, was detected using the widely-used membrane permeable probe, DCF-DA. Post treatment, BV-2 cells were rinsed once with warm HBSS prior to being incubated with 40 µM of DCF-DA for 30 min at 37°C, 5% CO2. The wells were then rinsed again with HBSS before being read on a Perkin-Elmer Enspire plate reader (λex: 488 nm, λem: 535 nm) as we have reported previously (Kagawa et al. [2023]).

[4] = tested on: LPS-activated BV-2 cells; assay: Extracellular nitrite (Griess assay) from LPS-activated BV-2 cells; assay type: cell-based, mouse; settings: 50 µM, 1 µg/mL LPS 24 h
Procedure: BV-2 cells were cultured in DMEM/F-12 media supplemented with 10% (v/v) FBS and 1% (v/v) penicillin/streptomycin, and kept at 37 °C in a humidified incubator ([…], 5% CO2) for all studies. Cells with 80% confluency were used for experiments. At 24 h post-seeding, BV-2 cells were treated with either of the MFP compounds (at concentrations detailed below) or vehicle (0.1% (v/v) DMSO) and 1 µg/mL LPS for a period of 24 h. In some experiments (detailed in Results), BV-2 cells were exposed to MFP compounds for 2 h before a 24 h exposure to LPS and MFP compounds, and in some studies, in the presence of FABP4 siRNA using a 24 h treatment that we have previously employed (Low et al. [2021]). […]
For measurement of extracellular nitrite concentrations, the Griess assay was performed as per the manufacturer’s protocol (Molecular Probes, Eugene, OR) with minor changes. […] The absorbance of the media samples was measured on a Perkin-Elmer Enspire plate reader at 548 nm, with nitrite concentrations in media samples obtained by back calculating sample absorbance values back to a standard curve prepared through serial dilution of NaNO2 prepared in media.

[5] = target: FABP4; parameters: method as in Floresta et al. [2017]; settings: ref Floresta et al. [2017]; cited from earlier work
[6] = tested on: LPS-activated BV-2 cells; parameters: method as in Kagawa et al. [2023]; settings: 50 µM; ref Kagawa et al. [2023]; cited from earlier work
[7] = tested on: BV-2 cells; parameters: method as in Kagawa et al. [2023]; settings: 50 µM; ref Kagawa et al. [2023]; cited from earlier work
[8] = parameters: method as in PubChem [2021]; settings: ref PubChem [2021]; cited from earlier work
[9] = tested on: LPS-activated BV-2 cells; parameters: method as in Duffy et al. [2017]; settings: 50 µM; ref Duffy et al. [2017]; cited from earlier work
[10] = tested on: LPS-activated BV-2 cells; parameters: method as in Kagawa et al. [2023]; settings: five-fold higher concentration than 10 µM; ref Kagawa et al. [2023]; cited from earlier work
[11] = 1D 1H NMR aqueous solubility in phosphate buffer; assay type: physicochemical; settings: kinetic from dmso stock, phosphate buffer pH 7.4 in D2O, 0.1% d6-DMSO, 25 °C, range 3.125–100 µM, read-out: Soluble in phosphate buffer up to (concentration)
Procedure: 1D ^1H NMR was employed to determine the solubility limits of the four MFP compounds and BMS309403 in phosphate buffer. This method has been commonly used to determine compound solubility in the drug discovery setting (Devine et al. [2014]; Lee et al. [2015b]; Lin et al. [2009]). A 100 mM of stock solution of each compound was first prepared in d6-DMSO. These stock solutions were then added into phosphate buffer (50 mM sodium phosphate, 25 mM NaCl, 100 µM of DSS, pH 7.4 in D2O) to achieve a final d6-DMSO concentration of 0.1% (v/v) which is equivalent to the DMSO concentration present in BV-2 cell culture experiments. All samples were inspected to note whether visible precipitates were formed. ^1H NMR spectra for all of the samples were acquired using Bruker Avance III 600 MHz spectrometer at 25 °C. Experimental data were acquired using a relaxation delay of 5 s with 128 scans, and water suppression using an excitation sculpting pulse scheme. Mestrelab Research 13.0 software was used to integrate the proton resonances of the compounds. A well-resolved peak (i.e. no overlaps with any other peaks) in the spectrum of each compound was chosen for integration, relative to the DSS peak (at 0 ppm). […] In addition, the chemical shifts of the resonances in the 1D ^1H NMR spectra were monitored.

[12] = read-out: KD (ITC titration of FABP4, Figure S1)

T1 sequence (P15090 whole entry): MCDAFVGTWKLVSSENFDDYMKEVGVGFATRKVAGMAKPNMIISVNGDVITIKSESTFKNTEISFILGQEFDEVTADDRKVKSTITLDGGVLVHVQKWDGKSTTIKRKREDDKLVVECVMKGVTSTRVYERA

Structure (SMILES): CNC(=O)c1ccc(S(=O)(=O)Nc2cccc(C(=O)O)c2)cc1 [MFP-0012318]
- Kd ([1]; 25°C, pH 7.4, 2% DMSO, read-out: KD against FABP4): > 100000 nM
- fold reduction in cell viability [2]: 0.17–0.27 fold
- BV-2 cell viability relative to vehicle control [2]: no significant differences
- % reduction in intracellular ROS production (mean ± SEM) ([3]; 50 µM): 54 ± 0.09 (****p < 0.0001) %

Structure (SMILES): COc1ccc(S(=O)(=O)Nc2cccc(C(=O)O)c2)cc1Cl [MFP-0012314]
- Kd [1, 12]: 885 nM
- fold reduction in cell viability [2]: 0.17–0.27 fold
- BV-2 cell viability relative to vehicle control [2]: no significant differences
- % reduction in intracellular ROS production (mean ± SEM) ([3]; 10 µM): 40 ± 0.09 (**p < 0.01) %
- % reduction in intracellular ROS production (mean ± SEM) ([3]; 50 µM): 42 ± 0.07 (***p < 0.001) %

Structure (SMILES): COc1cc(S(=O)(=O)Nc2cccc(C(=O)O)c2)ccc1Cl [MFP-0011462]
- Kd [1, 12]: 694 nM
- fold reduction in cell viability [2]: 0.17–0.27 fold
- BV-2 cell viability relative to vehicle control [2]: no significant differences
- attenuation of LPS-mediated release of nitrite [4]: 12.2%
- % reduction in intracellular ROS production (mean ± SEM) ([3]; 10 µM): 49 ± 0.04 (****p < 0.0001) %
- % reduction in intracellular ROS production (mean ± SEM) ([3]; 50 µM): 46 ± 0.08 (***p < 0.001) %

Structure (SMILES): CCc1c(-c2ccccc2)c(-c2ccccc2)nn1-c1ccccc1-c1cccc(OCC(=O)O)c1 [BMS309403, 2-((2'-(5-Ethyl-3,4-diphenyl-1H-pyrazol-1-yl)-[1,1'-biphenyl]-3-yl)oxy)acetic acid]
- Ki [5]: < 2 nM
- reduction in ROS levels [6]: 36.0%
- toxicity to BV-2 cells [7]: does not exhibit toxicity
- LogP [8]: 7.2
- reduction in nitrite production [9]: 26.8%
- reduction in LPS-mediated TNF-α release [10]: 29.0%
- solubility [11]: ≥ 100 µM
